# Like-named read-outs stand apart in the source and are kept apart here.
# Test system: Escherichia coli (ATCC25922) or Staphylococcus aureus (ATCC25923)
# Test: Antibacterial MIC, microdilution method in Mueller-Hinton medium
# Format: cell-based
# Details: for MIC: Escherichia coli, 18 h, read-out: Potency (MIC)
# Description: The antibacterial activity of the Formula I compounds was evaluated against standard bacterial strains by determining the minimal inhibitory concentration (MIC) to block growth. Each drug was assayed by the microdilution method in Mueller-Hinton medium, as recommended by the National Committee for Clinical Laboratory Standards. Approved Standard M7-A5: Methods for Dilution Antimicrobial Susceptibility Tests for Bacteria That Grow Aerobically 5th Ed. (National Committee for Clinical Laboratory Standards, Wayne, Pa., 2000). The tested bacterial strains included Escherichia coli (American Type Collection ATCC25922), Staphylococcus aureus (ATCC25923), and Pseudomonas aeruginosa (ATCC27853). Two-fold serial dilutions of each compound ranging from 64 to 0.5 μg/ml were tested in duplicate. The MIC was determined as the lowest concentration of each compound that prevented bacterial growth after 18 hours of incubation at 35° C. […] The mass of each compound in the Table was confirmed by LC-MS.
# [1] = MIC in E. coli or S. aureus, two-fold serial dilutions 64 to 0.5 μg/ml in duplicate, 18 hours of incubation at 35° C.
Compound,MIC,MIC [1],also measured
"COc1cc2c(cc1Nc1nc(N3C[C@H](N)C[C@H](N)C3)nc(N3C[C@H](N)C[C@H](N)C3)n1)oc1ccccc12 [N-(2-methoxy-dibenzofuran-3-yl)-4,6-Bis-((3R,5S)-3,5-diamino-piperidin-1-yl)-[1,3,5]triazine-2-amine]",< 64 µg/mL,–,–
"N[C@@H]1C[C@H](N)CN(c2nc(Nc3ccc(NC(=O)c4cc(OC(F)(F)F)ccc4O)cc3)nc(N3C[C@H](N)C[C@H](N)C3)n2)C1 [N-[4-(2-hydroxy-5-trifluoromethoxy-benzoylamino)-phenyl]-4,6-Bis-((3R,5S)-3,5-diamino-piperidin-1-yl)-[1,3,5]triazine-2-amine]",< 16 µg/mL,–,–
"COc1ccc(O)c(C(=O)Nc2ccc(Nc3nc(N4C[C@H](N)C[C@H](N)C4)nc(N4C[C@H](N)C[C@H](N)C4)n3)cc2O)c1 [N-[3-hydroxy-4-(2-hydroxy-5-methoxy-benzoylamino)-phenyl]-4,6-Bis-((3R,5S)-3,5-diamino-piperidin-1-yl)-[1,3,5]triazine-2-amine]",< 16 µg/mL,–,–
"N[C@@H]1C[C@H](N)CN(c2nc(Nc3ccc(C(=O)CC(=O)Nc4ccccc4Cl)cc3)nc(N3C[C@@H](O)[C@@H](O)C3)n2)C1 [N-(2-Chloro-phenyl)-3-{4-[4-((3S,5R)-3,5-diamino-piperidin-1-yl)-6-((3R,4S)-3,4-dihydroxy-pyrrolidin-1-yl)-[1,3,5]triazin-2-ylamino]-phenyl}-3-oxo-propionamide]",< 64 µg/mL,–,–
"N[C@@H]1C[C@H](N)CN(c2nc(Nc3ccc4c(c3)-c3ccccc3C4=O)nc(N3C[C@H](N)C[C@H](N)C3)n2)C1 [N-(9-oxo-9H-fluoren-3-yl)-4,6-Bis-((3R,5S)-3,5-diamino-piperidin-1-yl)-[1,3,5]triazine-2-amine]",< 16 µg/mL,–,–
"N[C@@H]1C[C@H](N)CN(c2nc(Nc3ccc(S(=O)(=O)Nc4ccc5cn[nH]c5c4)cc3)nc(N3C[C@H](O)C[C@@H](O)C3)n2)C1 [4-[4-((3S,5R)-3,5-Diamino-piperidin-1-yl)-6-((3R,5R)-3,5-dihydroxy-piperidin-1-yl)-[1,3,5]triazin-2-ylamino]-N-(1H-indazol-6-yl)-benzenesulfonamide]",> 64 µg/mL,–,–
"COc1ccc(NC(=O)c2ccc(C)cc2O)c(Nc2nc(N3C[C@H](N)C[C@H](N)C3)nc(N3C[C@H](N)C[C@H](N)C3)n2)c1 [N-[2-(2-hydroxy-4-methyl-benzoylamino)-5-methoxy-phenyl]-4,6-Bis-((3R,5S)-3,5-diamino-piperidin-1-yl)-[1,3,5]triazine-2-amine]",> 64 µg/mL,–,–
"Cc1cc(NC(=O)c2ccccc2)c(Cl)cc1Nc1nc(N2CCCCC2)nc(N2CCCCC2)n1 [N-(4-benzoylamino-5-chloro-23-methyl-phenyl)-4,6-Bis((3R,5S)-3,5-diamino-piperidin-1-yl)-[1,3,5]triazine-2-amine]",–,> 64 µg/mL,–
"NC[C@H]1[C@@H](O)CCN1c1nc(Nc2ccc(NC(=O)c3ccc(Cl)cc3)c(O)c2)nc(N2C[C@H](N)C[C@H](N)C2)n1 [N-{4-[4-((2S,3S)-2-Aminomethyl-3-hydroxy-pyrrolidin-1-yl)-6-((3R,5S)-3,5-diamino-piperidin-1-yl)-[1,3,5]triazin-2-ylamino]-2-hydroxy-phenyl}-4-chloro-benzamide]",< 64 µg/mL,–,–
"NC[C@@H]1CN(c2nc(Nc3ccc4c(c3)-c3ccccc3C4=O)nc(N3C[C@H](N)C[C@H](N)C3)n2)CC[C@@H]1O [3-[4-((3R,4S)-3-Aminomethyl-4-hydroxy-piperidin-1-yl)-6-((3R,5S)-3,5-diamino-piperidin-1-yl)-[1,3,5]triazin-2-ylamino]-fluoren-9-one]",> 64 µg/mL,–,–
"N[C@@H]1C[C@H](N)CN(c2cc(Nc3ccc(NC(=O)c4ccc5ccccc5c4O)cc3)nc(N3C[C@H](N)C[C@H](N)C3)c2)C1 [1-Hydroxy-naphthalene-2-carboxylic acid [4-(4,6-Bis-((3R,5S)-3,5-diamino-piperidin-1-yl)-pyridin-2-ylamino)-phenyl]-amide]",< 16 µg/mL,–,–
"NC[C@@H]1C[C@@H](O)CN1c1nc(Nc2ccc(C(=O)CC(=O)Nc3ccc(F)c(F)c3)cc2)nc(N2C[C@H](N)C[C@H](N)C2)n1 [3-{4-[4-((2S,4R)-2-Aminomethyl-4-hydroxy-pyrrolidin-1-yl)-6-((3R,5S)-3,5-diamino-piperidin-1-yl)-[1,3,5]triazin-2-ylamino]-phenyl}-N-(3,4-difluoro-phenyl)-3-oxo-propionamide]",< 64 µg/mL,–,–
"COc1ccc(NC(=O)c2ccc(Cl)cc2O)c(Nc2nc(N3CCCCC3)nc(N3CCCCC3)n2)c1.Cl [BN-[2-(4-chloro-2-hydroxy-benzoylamino)-5-methoxy-phenyl]-4,6-Bis-((3R,5S)-3,5-diamino-piperidin-1-yl)-[1,3,5]triazine-2-amine]",–,> 64 µg/mL,–
"Cl.O=C(Nc1ccc(O)cc1)c1ccc(Nc2nc(N3CCCCC3)nc(N3CCCCC3)n2)cc1O [N-[3-hydroxy-4-(4-hydroxy-phenylcarbamoyl)-phenyl]-4,6-Bis((3R,5S)-3,5-0diamino-piperidin-1-yl)-[1,3,5]triazine-2-amine]",–,< 16 µg/mL,–
"Cl.O=C(CC(=O)N1CCC(n2c(=O)[nH]c3ccccc32)CC1)c1ccc(Nc2nc(N3CCCCC3)nc(N3CCCCC3)n2)cc1 [N-(4-{3-oxo-3-[4-(2-oxo-2,3-dihydro-benzoimidazol-1-yl)-piperidin-1-yl]-propionly}-phenyl)-4,6-Bis-((3R,5S)-3,5-diamino-piperidin-1-yl)-[1,3,5]triazine-2-amine]",–,> 64 µg/mL,–
"Cl.O=C(CC(=O)c1ccc(Nc2nc(N3CCCCC3)nc(N3CCCCC3)n2)cc1)Nc1ccccc1Cl [N-(2-Chloro-phenyl)-3-{4-[4-(3S,5R)-3,5-diamino-piperidin-1-yl)-6-((R)-3-hydroxy-piperidin-1-yl)-[1,3,5]triazin-2-ylamino]-phenyl}-3-oxo-propionamide]",–,< 64 µg/mL,–
"CC(C)(C)C(=O)Nc1ccc(S(=O)(=O)Nc2ccc(Nc3nc(N4C[C@H](N)C[C@H](N)C4)nc(N4C[C@H](N)C[C@H](N)C4)n3)cc2O)cc1.Cl [N-{4-[4-(2,2-dimethyl-propionylamino)-benzenesulfonylamino]-3-hydroxy-phenyl}-4,6-Bis-((3R,5S)-3,5-diamino-piperidin-1-yl)-[1,3,5]triazine-2-amine]",–,> 64 µg/mL,–
"COc1ccc(S(=O)(=O)Nc2ccc(Nc3nc(N4C[C@H](N)C[C@H](N)C4)nc(N4C[C@H](N)C[C@H](N)C4)n3)cc2O)cc1OC [N-[4-(3,4-dimethoxy-benzenesulfonylamino)-3-hydroxy-phenyl]-4,6-Bis-((3R,5S)-3,5-diamino-piperidin-1-yl)-[1,3,5]triazine-2-amine]",> 64 µg/mL,–,–
"Cc1cc(NC(=O)c2cc3cccc(O)c3cc2O)ccc1Nc1nc(N2C[C@H](N)C[C@H](N)C2)nc(N2C[C@H](N)C[C@H](N)C2)n1 [N-{4-[(3,5-dihydroxy-naphthalene-2-carbonyl)-amino]-2-methyl-phenyl}-4,6-Bis-((3R,5S)-3,5-diamino-piperidin-1-yl)-[1,3,5]triazine-2-amine]",–,< 64 µg/mL,–
"NC[C@@H]1C[C@H](N)CN1c1nc(Nc2ccc(C(=O)CC(=O)Nc3ccccc3Cl)cc2)nc(N2C[C@H](N)C[C@H](N)C2)n1 [3-{4-[4-((2S,4S)-4-Amino-2-aminomethyl-pyrrolidin-1-yl)-6-((3R,5S)-3,5-diamino-piperidin-1-yl)-[1,3,5]triazine-2-ylamino]-phenyl}-N-(2-chloro-phenyl)-3-oxo-propionamide]",< 64 µg/mL,–,–
"Cc1ccc(S(=O)(=O)N(Cc2ccccc2)c2ccc(Nc3nc(NC4CCNCC4)nc(N4C[C@H](N)C[C@H](N)C4)n3)cc2O)cc1 [N-Benzyl-N-{4-[4-((3R,5S)-3,5-diamino-piperidin-1-yl)-6-(piperidin-4-ylamino)-[1,3,5]triazin-2-ylamino]-2-hydroxy-phenyl}-4-methyl-benzenesulfonamide]",–,< 64 µg/mL,–
"COC(=O)CC(=O)Nc1ccc(Nc2nc(N3C[C@H](N)C[C@H](N)C3)nc(N3C[C@H](N)C[C@H](N)C3)n2)cc1O [N-{4-[4,6-Bis-((3R,5S)-3,5-diamino-piperidin-1-yl)-[1,3,5]triazin-2-ylamino]-2-hydroxy-phenyl}-malonamic acid methylester]",–,> 64 µg/mL,–
"NC[C@@H]1C[C@H](N)CN1c1nc(Nc2ccc(C(=O)CC(=O)Nc3ccc(F)c(F)c3)cc2)nc(N2C[C@H](N)C[C@H](N)C2)n1 [3-{4-[4-((2S,4S)-4-Amino-2-aminomethyl-pyrrolidin-1-yl)-6-((3R,5S)-3,5-diamino-piperidin-1-yl)-[1,3,5]triazin-2-ylamino]-phenyl}-N-(3,4-difluoro-phenyl)-3-oxco-propionamide]",–,–,Potency (MIC) [1]: + (+ means MIC<64 μg/ml in E. coli or S. aureus)
"Cc1cc(Nc2nc(N3C[C@H](N)C[C@H](N)C3)nc(N3C[C@H](N)C[C@H](N)C3)n2)ccc1NC(=O)c1cccc([N+](=O)[O-])c1O [N-[4-(2-hydroxy-3-nitro-benzoylamino)-3-methyl-phenyl]-4,6-Bis-((3R,5S)-3,5-diamino-piperidin-1-yl)-[1,3,5]triazine-2-amine]",< 64 µg/mL,–,–
"Cl.O=C(CCCCC1SCC2NC(=O)NC21)Nc1ccc(Nc2nc(N3CCCCC3)nc(N3CCCCC3)n2)cc1O [5-((S)-2-Oxo-hexahydro-thieno[3,4-d]imidazol-2-yl)-penanoicacid {4-[4-((3S,5S)-3-amino-5-azido-piperidin-1-yl)-6-((3S,5R)-3,5-diamino-piperidin-1-yl)-[1,3,5]triazin-2-ylamino]-2-hydroxy-phenyl}-amide]",–,> 64 µg/mL,–
